Results: patent US12448369B2 (Edgewise Therapeutics, Inc., priority 2023, dated 2025)
Like-named read-outs stand apart in the source and are kept apart here.

Legend:
[1] = test system: Porcine atria myofibrils (atrial myosin ATPase); assay: Myofibril ATPase assay, porcine atria myofibrils; type: biochemical
Outline: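 Y75 (25% inhibition) or Y125 (activation) values come from 4-parameter logistic fits of vehicle-normalized rates. Rates are linear-regression slopes of NADH absorbance at 340 nm, read kinetically over 75 min, with ADP coupled to NADH oxidation via pyruvate kinase/lactate dehydrogenase.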

SD rats = assay: Echocardiography of systolic cardiac performance (HR, FS, LV volumes, SWT) after a single oral dose; type: in vivo; settings: Rattus norvegicus, single dose 10 mg/kg PO, ~2 hrs post-dosing, isoflurane-anesthetized
Description: Example 2. Echocardiogram Data
Experiments were performed to evaluate the in vivo ability of the compounds of the disclosure to modulate systolic cardiac performance. Non-invasively echocardiography was used to assess cardiac indicators in isoflurane-anesthetized SD rats. A set of conscious rats were treated with either vehicle control (0 mg/kg PO; n=78) or a single dose of a test compound (10 mg/kg PO, n=2 to 6/compound) via oral gavage. Cardiac function/geometry were recorded at two separate time-points/days: once prior to dosing (e.g., at baseline, day −2) and at ˜2 hrs post-dosing (day 0). In these experiments, heart rate (HR), echocardiography-derived indices of left-ventricular systolic performance, as well as dimensions/volumes were measured using a high-frequency transducer and parasternal long-axis transthoracic views (Vevo3100, VisualSonic). LV fractional shortening (FS), an index of systolic function, was defined as the end-diastole normalized change in internal dimensions divided by the difference in diameter (LVid) of the left ventricle between end-systole (LVids) and end-diastole (LVidd) (e.g., FS=100·[LVidd−LVids]/LVidd). LV volumes were derived using the Teichholz formula (LVV=[7·LVid^3]/[2.4+LVid]). In addition, a systolic wall-thickening index (SWT) was also evaluated. SWT is defined as the relative ratio (end-diastole normalized) of left-ventricular (anterior and posterior) wall-thickness change during systole; e.g., SWT={[(anterior LV wall thickness in systole−anterior LV wall thickness in diastole)]+[(posterior LV wall thickness in systole−posterior LV wall thickness in diastole)]}/{2*diastolic thickness}. In all cases, blood samples were taken (via either tail-vein micro-sampling or cardiac-puncture) at the time of each echocardiographic examination in order to establish pharmacokinetic (PK)/pharmacodynamics (PD) relationships.

[2] = test system: Rabbit Psoas myofibrils (skeletal myosin ATPase); assay: Myofibril ATPase assay, rabbit psoas (skeletal) myofibrils; type: biochemical
Outline: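 Values are concentrations giving 75% (Y75) or 125% (Y125) of vehicle ATPase activity, from 4-parameter logistic fits of normalized rates. Rates came from linear regression of A340 over 75 min, NADH oxidation coupled to ADP via PK-LDH. Enzyme source: skeletal myofibrils from rabbit psoas, pH 7.0 pCa buffer.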

[3] = target: T1, Porcine ventricle myofibrils (ventricular myosin ATPase) (Sus scrofa, UniProt P79293); assay: Myofibril ATPase assay, porcine ventricle myofibrils; type: biochemical, porcine (Yucatan minipigs)
T1 construct: Myofibrils from porcine cardiac muscle was isolated from the left ventricle of Yucatan minipigs; tissue Exemplar Genetics; host or cells: left ventricle of Yucatan minipigs, myofibrils prepared in house
Outline: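 ATPase activity of porcine left-ventricular myofibrils is tracked as the slope of NADH loss at 340 nm through a PK/LDH couple. Values are the concentrations that bring activity to 75% (inhibitors) or 125% (activators) of vehicle.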

[4] = porcine atria myofibrils, Y75 value (75% activity relative to no compound)
[5] = EDV change vs vehicle, read-out: EDV % vs. VEH
[6] = LV fractional shortening change vs vehicle, read-out: FS % vs. VEH
[7] = SWT change vs vehicle, read-out: SWT % vs. VEH
[8] = heart rate change vs vehicle, read-out: HR % vs. VEH
[9] = rabbit psoas myofibrils, Y75 value
[10] = porcine ventricle myofibrils, Y75 value
[11] = Y75 value (no ‡ mark), porcine atria myofibrils
[12] = Y75 value (no ‡ mark), rabbit psoas myofibrils
[13] = Y75 value (no ‡ mark), porcine ventricle myofibrils

T1 sequence (P79293 whole entry): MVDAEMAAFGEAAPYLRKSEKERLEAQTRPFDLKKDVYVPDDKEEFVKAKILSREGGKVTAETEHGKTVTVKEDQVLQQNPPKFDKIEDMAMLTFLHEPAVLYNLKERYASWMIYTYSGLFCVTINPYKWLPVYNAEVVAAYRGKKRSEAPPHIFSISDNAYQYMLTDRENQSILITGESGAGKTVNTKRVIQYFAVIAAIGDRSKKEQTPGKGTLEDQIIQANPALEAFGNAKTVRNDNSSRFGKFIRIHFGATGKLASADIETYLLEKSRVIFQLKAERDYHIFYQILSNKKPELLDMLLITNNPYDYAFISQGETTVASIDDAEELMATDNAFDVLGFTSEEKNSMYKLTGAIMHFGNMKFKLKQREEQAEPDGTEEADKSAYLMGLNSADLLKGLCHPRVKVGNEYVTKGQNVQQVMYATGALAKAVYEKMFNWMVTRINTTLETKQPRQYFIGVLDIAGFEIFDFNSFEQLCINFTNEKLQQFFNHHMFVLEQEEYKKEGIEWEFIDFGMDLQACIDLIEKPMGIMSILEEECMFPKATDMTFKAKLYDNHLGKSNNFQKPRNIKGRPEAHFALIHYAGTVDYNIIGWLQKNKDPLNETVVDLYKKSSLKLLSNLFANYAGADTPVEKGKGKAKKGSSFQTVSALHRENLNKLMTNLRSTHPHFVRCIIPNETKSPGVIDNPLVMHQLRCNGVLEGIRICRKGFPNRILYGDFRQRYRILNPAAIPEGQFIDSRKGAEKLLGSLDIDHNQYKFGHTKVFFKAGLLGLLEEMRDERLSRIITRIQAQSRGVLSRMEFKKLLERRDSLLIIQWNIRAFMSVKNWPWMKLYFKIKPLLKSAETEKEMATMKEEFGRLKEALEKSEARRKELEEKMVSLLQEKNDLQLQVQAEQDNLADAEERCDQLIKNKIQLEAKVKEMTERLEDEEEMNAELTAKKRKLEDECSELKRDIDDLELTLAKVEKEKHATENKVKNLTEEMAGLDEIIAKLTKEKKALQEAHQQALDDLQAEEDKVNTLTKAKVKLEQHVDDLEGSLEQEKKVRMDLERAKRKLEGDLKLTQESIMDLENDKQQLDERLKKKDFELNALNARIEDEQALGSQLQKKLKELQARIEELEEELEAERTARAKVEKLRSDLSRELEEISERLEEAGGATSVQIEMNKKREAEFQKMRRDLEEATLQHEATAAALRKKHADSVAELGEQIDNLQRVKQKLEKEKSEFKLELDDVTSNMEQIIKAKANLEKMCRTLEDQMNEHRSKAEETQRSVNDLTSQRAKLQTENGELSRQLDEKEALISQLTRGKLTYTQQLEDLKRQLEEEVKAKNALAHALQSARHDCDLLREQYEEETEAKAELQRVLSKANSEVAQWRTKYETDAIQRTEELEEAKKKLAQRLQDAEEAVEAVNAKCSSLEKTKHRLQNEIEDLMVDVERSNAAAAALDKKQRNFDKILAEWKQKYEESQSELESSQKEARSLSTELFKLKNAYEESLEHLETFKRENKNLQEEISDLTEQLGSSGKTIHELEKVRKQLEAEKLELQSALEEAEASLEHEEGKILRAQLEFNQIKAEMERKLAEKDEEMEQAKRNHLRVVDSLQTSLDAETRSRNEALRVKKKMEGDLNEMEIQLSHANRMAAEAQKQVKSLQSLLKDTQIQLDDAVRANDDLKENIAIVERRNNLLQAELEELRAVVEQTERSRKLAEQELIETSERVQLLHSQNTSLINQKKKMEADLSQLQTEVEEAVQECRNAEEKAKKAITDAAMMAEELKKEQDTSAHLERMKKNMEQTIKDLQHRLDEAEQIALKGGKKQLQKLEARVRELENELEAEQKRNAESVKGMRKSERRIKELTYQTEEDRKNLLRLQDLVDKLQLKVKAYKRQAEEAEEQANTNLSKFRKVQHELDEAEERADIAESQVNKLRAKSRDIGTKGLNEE

Structure (SMILES)	Atrial EC25 [1, 4]	Skeletal EC25 [2, 9]	Ventricular EC25 [3, 10]	Atrial EC25 [1, 11]	Skeletal EC25 [2, 12]	Ventricular EC25 [3, 13]	Atrial EC25 ([1]; Y75 value: concentration required to reduce myosin ATP-ase activity by 25%, Porcine Atria Prep pCa 25 GEOM_MEAN)	Skeletal EC25 ([2]; Y75 value: concentration required to reduce myosin ATP-ase activity by 25%, Rabbit Psoas Prep pCa 25 GEOM_MEAN)	Ventricular EC25 ([3]; Y75 value: concentration required to reduce myosin ATP-ase activity by 25%, Porcine Ventricle Prep pCa 25 GEOM_MEAN)	change in vivo at 10 mg/kg (SD rats; [5])	change in vivo at 10 mg/kg (SD rats; [6])	change in vivo at 10 mg/kg (SD rats; [7])	change in vivo at 10 mg/kg (SD rats; [8])
Cc1c(CC(=O)N[C@@H](C)c2ccc(F)cc2F)c(=O)[nH]c2ccnc(C#N)c12 [compound 355, 2-(5-cyano-4-methyl-2-oxo-1H-1,6-naphthyridin-3-yl)-N-[(1S)-1-(2,4-difluorophenyl)ethyl]acetamide]	70 nM	10 nM	140 nM							1 to 10%	11 to 20%	1 to 10%	1 to 10%
Cc1c(CC(=O)N[C@@H](C)c2ccc(F)cc2F)c(=O)[nH]c2ccc(F)c(C#N)c12 [compound 83]				40 nM	10 nM	100 nM				1 to 20%	11 to 20%	11 to 20%	1 to 10%
Cc1c(CC(=O)N[C@@H](C)c2ncc(C#N)cn2)c(=O)[nH]c2ccc(F)c(F)c12 [compound 1124, (S)—N-(1-(5-cyanopyrimidin-2-yl)ethyl)-2-(5,6-difluoro-4-methyl-2-oxo-1,2-dihydroquinolin-3-yl)acetamide]				70 nM	140 nM	340 nM				1 to 10%	21 to 40%	1 to 20%	1 to 10%
Cc1nccc2[nH]c(=O)c(CC(=O)N[C@@H](C)c3ccc(C#N)cc3F)c(C)c12 (single isomer, unassigned) [compound 256]	80 nM	20 nM	190 nM							1 to 20%	1 to 20%	1 to 20%	1 to 10%
Cc1c(CC(=O)N[C@H](CO)c2ccc(F)cc2F)c(=O)[nH]c2ccnc(C(F)(F)F)c12 [compound 231]	100000 nM	100000 nM	100000 nM										
C[C@H](NC(=O)[C@@H](C)c1cc2nc(F)ccc2[nH]c1=O)c1ccc(F)cc1F (single isomer, unassigned) [compound 364]	1160 nM	440 nM	4710 nM										
Cc1nccc2[nH]c(=O)c(CC(=O)N[C@H]3CNc4cc(F)cc(F)c43)c(C)c12 (single isomer, unassigned) [compound 182]	8600 nM	1760 nM	35910 nM										
Cc1c(CC(=O)N[C@@H]2c3c(F)cc(F)cc3OC2(C)C)c(=O)[nH]c2ccnc(C#N)c12 (single isomer, unassigned) [compound 188]	2430 nM	26500 nM	39560 nM										
Cc1c(C(F)(F)C(=O)N[C@@H](C)c2ncc(C#N)cn2)c(=O)[nH]c2ccc(F)cc12 (single isomer, unassigned) [compound 2595]				360 nM	170 nM	450 nM							
C[C@H](NC(=O)Cc1cc2cc(F)ccc2[nH]c1=O)c1ccc(C#N)cn1 [compound 1126]				100000 nM	100000 nM	100000 nM							
C[C@H](NC(=O)[C@H](C)c1cc2c(F)c(F)ccc2[nH]c1=O)c1ccc(F)cc1F (single isomer, unassigned) [compound 111]				100 nM	110 nM	100000 nM							
Cc1c(CC(=O)N[C@H](C)c2ncc(C#N)cc2F)c(=O)[nH]c2cc(F)ccc12 [compound 1078]				2570 nM	2270 nM	2050 nM							
Cc1nccc2[nH]c(=O)c(CC(=O)N[C@@H]3COc4cccnc43)c(C)c12 (single isomer, unassigned) [compound 251]	100000 nM	100000 nM	100000 nM										
Cc1c(C(F)(F)C(=O)N[C@@H]2CCc3cc(C#N)cnc32)c(=O)[nH]c2ccc(F)cc12 (single isomer, unassigned) [compound 2515]				5060 nM	100000 nM	100000 nM							

Second part, led by results:

Atrial EC25 [1, 4]	Skeletal EC25 [2, 9]	Ventricular EC25 [3, 10]	Atrial EC25 [1, 11]	Skeletal EC25 [2, 12]	Ventricular EC25 [3, 13]	Atrial EC25 ([1]; Y75 value: concentration required to reduce myosin ATP-ase activity by 25%, Porcine Atria Prep pCa 25 GEOM_MEAN)	Skeletal EC25 ([2]; Y75 value: concentration required to reduce myosin ATP-ase activity by 25%, Rabbit Psoas Prep pCa 25 GEOM_MEAN)	Ventricular EC25 ([3]; Y75 value: concentration required to reduce myosin ATP-ase activity by 25%, Porcine Ventricle Prep pCa 25 GEOM_MEAN)	Structure (SMILES)	change in vivo at 10 mg/kg (SD rats; [5])	change in vivo at 10 mg/kg (SD rats; [6])	change in vivo at 10 mg/kg (SD rats; [7])	change in vivo at 10 mg/kg (SD rats; [8])
			80 nM	10 nM	40 nM				Cc1c(CC(=O)N[C@@H](C)c2ncc(C#N)cc2F)c(=O)[nH]c2ccc(F)c(F)c12 [compound 42]	1 to 10%	21 to 40%	≥ 21%	0%
			130 nM	70 nM	450 nM				Cc1c(CC(=O)N[C@H](C)c2ncc(C#N)cc2F)c(=O)[nH]c2ccc(F)c(F)c12 [compound 41]	1 to 20%	1 to 20%	≥ 21%	1 to 20%
			80 nM	90 nM	150 nM				C[C@@H](NC(=O)Cc1cc2c(F)c(F)ccc2[nH]c1=O)c1ncc(C#N)cc1F [compound 35]	11 to 20%	1 to 20%	0%	1 to 10%
			540 nM	370 nM	490 nM				Cc1c(CC(=O)N[C@H](C)c2ncc(C#N)cc2F)c(=O)[nH]c2ccc(F)cc12 [compound 1106]	1 to 10%	21 to 40%	21 to 40%	1 to 10%
			140 nM	210 nM	190 nM				Cc1c(CC(=O)N[C@@H](C)c2cnc(C#N)cn2)c(=O)[nH]c2ccc(F)c(F)c12 [compound 1146, (S)—N-(1-(5-cyanopyrazin-2-yl)ethyl)-2-(5,6-difluoro-4-methyl-2-oxo-1,2-dihydroquinolin-3-yl)acetamide]	1 to 20%	21 to 40%	21 to 40%	1 to 10%
			480 nM	580 nM	1370 nM				Cc1c(CC(=O)N[C@H](C)c2ncc(C#N)cn2)c(=O)[nH]c2ccc(F)c(F)c12 [compound 1123, (R)—N-(1-(5-cyanopyrimidin-2-yl)ethyl)-2-(5,6-difluoro-4-methyl-2-oxo-1,2-dihydroquinolin-3-yl)acetamide]	21 to 40%	21 to 40%	41 to 60%	1 to 10%
			27670 nM	11400 nM	69620 nM				C[C@H](NC(=O)Cc1cc2cc(F)c(F)cc2[nH]c1=O)c1ccc(C#N)cn1 [compound 1115]				
						2280 nM	1490 nM	910 nM	CC(NC(=O)Cc1cc2c(F)c(F)ccc2[nH]c1=O)c1nc(C#N)cs1 (single isomer, unassigned) [compound 4009, N-(1-(4-cyanothiazol-2-yl)ethyl)-2-(5,6-difluoro-2-oxo-1,2-dihydroquinolin-3-yl)acetamide]				
